In this experiment the target is recombinant DYRK1A kinase (Homo sapiens (Human), UniProt Q13627). The experiment in a line: DYRK1A kinase assay (Ser/Thr 18 peptide Z-lyte FRET assay). It is filed as biochemical. The conditions noted are these: recombinant DYRK1A 0.25 µg/mL, ATP 15 µM, Ser/Thr peptide 18 4 µM, one hour at room temperature; table head prints EC50, method says IC50. In outline:
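Recombinant human DYRK1A (0.25 µg/mL) with 15 µM ATP and 4 µM Ser/Thr 18 peptide was incubated 1 h at room temperature with compound (11-point, 10 µM top), in duplicate. Z-lyte FRET read-out (coumarin/fluorescein emission ratio) was converted to percent phosphorylation; IC50 from non-linear regression.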

With `Cc1nc2ccc(-c3ccn4nc(N[C@H]5CC[C@@H](OCC(F)F)CC5)ncc34)nc2n1CC(F)F` [Compound 1838], the EC50 turned out to be 6 nM.

With `Cc1nc2ccc(-c3ccn4nc(NC5CCC6(CC5)OCCO6)ncc34)nc2n1CC(F)F` [Compound 1847], the EC50 is 5 nM.

Take `Cc1nc2ccc(-c3ccn4nc(N[C@H]5CC[C@@H](N6CCOCC6)CC5)ncc34)nc2n1CC(F)F` [Compound 1125, 5-(3-(2,2-Difluoroethyl)-2-methyl-3H-imidazo[4,5-b]pyridin-5-yl)-N-(cis-4-morpholinocyclohexyl)pyrrolo[2,1-f][1,2,4]triazin-2-amine]: the EC50 worked out at 18 nM. For the molecule `Cc1nc2nc(-c3ccn4nc(N[C@H]5CC[C@@H](OC(F)(F)F)CC5)ncc34)cnc2n1CC(F)F` [Compound 1971, 5-(1-(2,2-Difluoroethyl)-2-methyl-1H-imidazo[4,5-b]pyrazin-5-yl)-N-(cis-4-(trifluoromethoxy)cyclohexyl)pyrrolo[2,1-f][1,2,4]triazin-2-amine], the concentration for a half-maximal effect (EC50) turned out to be 379 nM. For `COCCO[C@H]1C[C@@H](Nc2ncc3c(-c4cnc5ncccc5c4)ccn3n2)C1` [Compound 1522, N-(cis-3-(2-Methoxyethoxy)cyclobutyl)-5-(1,8-naphthyridin-3-yl)pyrrolo [2,1-f][1,2,4]triazin-2-amine], the EC50 amounted to 3 nM. In the case of `COCCO[C@H]1CC[C@@H](Nc2ncc3c(-c4cnc5nccn5c4)ccn3n2)CC1` [Compound 265, 5-(Imidazo[1,2-a]pyrimidin-6-yl)-N-(cis-4-(2-methoxyethoxy)cyclohexyl) pyrrolo[2,1-f] [1,2,4]triazin-2-amine] it was 6 nM; in that of `CC(=O)N[C@]1(C)C[C@@H](Nc2ncc3c(-c4ccc5nc(C)n(CC(F)F)c5c4)ccn3n2)C1` [Compound 1920, N-((1r,3r)-3-((5-(1-(2,2-Difluoroethyl)-2-methyl-1H-benzo[d]imidazol-6-yl)pyrrolo[2,1-f] [1,2,4]triazin-2-yl)amino)-1-methylcyclobutyl)acetamide], 1 nM. In the case of `COCCO[C@H]1CC[C@@H](Nc2ncc3c(-c4ccc5nc(C)n(CC(F)F)c5n4)ccn3n2)CC1` [Compound 1117, 5-(3-(2,2-Difluoroethyl)-2-methyl-3H-imidazo[4,5-b]pyridin-5-yl)-N-(cis-4-(2-methoxyethoxy)cyclohexyl)pyrrolo[2,1-f][1,2,4]triazin-2-amine] it was 4 nM; in that of `Cc1nc2ccc(-c3ccn4nc(NC5CCN(C(=O)C(C)C)CC5)ncc34)nc2n1CC(F)F` [Compound 1859, 1-(4-((5-(3-(2,2-Difluoroethyl)-2-methyl-3H-imidazo[4,5-b]pyridin-5-yl)pyrrolo[2,1-f][1,2,4]triazin-2-yl)amino)piperidin-1-yl)-2-methylpropan-1-one], 8 nM; in that of `c1cn2cc(-c3ccn4nc(NC5CCOCC5)ncc34)cnc2n1` [Compound 280, 5-(imidazo[1,2-a]pyrimidin-6-yl)-N-(tetrahydro-2H-pyran-4-yl)pyrrolo[2,1-f][1,2,4]triazin-2-amine], 15 nM. Turning to `CC(C)(F)CNc1ncc2c(-c3cnc4ncc(Cl)n4c3)ccn2n1` [Compound 287, 5-(3-Chloroimidazo[1,2-a]pyrimidin-6-yl)-N-(2-fluoro-2-methylpropyl) pyrrolo[2,1-f] [1,2,4]triazin-2-amine], the EC50 was 170 nM. In the case of `Cc1nc2ccc(-c3ccn4nc(N[C@H]5CN(C6COC6)C[C@H]5F)ncc34)nc2n1CC(F)F` [Compound 1944, 5-(3-(2,2-difluoroethyl)-2-methyl-3H-imidazo[4,5-b]pyridin-5-yl)-N-((3S,4R)-4-fluoro-1-(oxetan-3-yl)pyrrolidin-3-yl)pyrrolo[2,1-f][1,2,4]triazin-2-amine] it was 13 nM; in that of `CN1CCC(Nc2ncc3c(-c4cnc5nccn5c4)ccn3n2)CC1` [Compound 279, 5-(Imidazo[1,2-a]pyrimidin-6-yl)-N-(1-methylpiperidin-4-yl)pyrrolo[2,1-f][1,2,4]triazin-2-amine], 49 nM.

Regarding `CN1CC2(CC(Nc3ncc4c(-c5cnc6nccn6c5)ccn4n3)C2)C1` [Compound 283, 5-(Imidazo[1,2-a]pyrimidin-6-yl)-N-(2-methyl-2-azaspiro[3.3]heptan-6-yl)pyrrolo[2,1-f][1,2,4]triazin-2-amine], the concentration for a half-maximal effect (EC50) was 20 nM. In the case of `Cc1nc2ncc(-c3ccn4nc(NC5CCOCC5)ncc34)cc2n1CC(F)F` [Compound 706, 5-(1-(2,2-Difluoroethyl)-2-methyl-1H-imidazo[4,5-b]pyridin-6-yl)-N-(tetrahydro-2H-pyran-4-yl)pyrrolo[2,1-f][1,2,4]triazin-2-amine] it was 5 nM; in that of `Cc1nc2ccc(-c3ccn4nc(N[C@@H]5CCCOC5)ncc34)nc2n1CC(F)F` [Compound 1863, (R)-5-(3-(2,2-Difluoroethyl)-2-methyl-3H-imidazo[4,5-b]pyridin-5-yl)-N-(tetrahydro-2H-pyran-3-yl)pyrrolo[2,1-f][1,2,4]triazin-2-amine], 8 nM; in that of `Cc1nc2ncc(-c3ccn4nc(N[C@H]5CC[C@](C)(O)CC5)ncc34)cc2n1CC(F)F` [Compound 1879, trans-4-((5-(1-(2,2-Difluoroethyl)-2-methyl-1H-imidazo[4,5-b]pyridin-6-yl)pyrrolo[2,1-f][1,2,4]triazin-2-yl)amino)-1-methylcyclohexan-1-ol], 2 nM. For `Cc1nc2ccc(-c3ccn4nc(N[C@H]5CC[C@@](C)(O)CC5)ncc34)nc2n1CC(=O)N(C)C` [Compound 1872, 2-(5-(2-((cis-4-Hydroxy-4-methylcyclohexyl)amino)pyrrolo[2,1-f][1,2,4]triazin-5-yl)-2-methyl-3H-imidazo[4,5-b]pyridin-3-yl)-N,N-dimethylacetamide], the EC50 came to 498 nM. The result for `CO[C@H]1C[C@H](Nc2ncc3c(-c4cnc5nccn5c4)ccn3n2)C1` [Compound 240, 5-(Imidazo[1,2-a]pyrimidin-6-yl)-N-(trans-3-methoxycyclobutyl)pyrrolo [2,1-f] [1,2,4]triazin-2-amine] reads 14 nM. For `C[C@]1(O)CC[C@@H](Nc2ncc3c(-c4ccc5ncccc5c4)ccn3n2)CC1` [Compound 1323, (1s,4s)-1-Methyl-4-((5-(quinolin-6-yl)pyrrolo[2,1-f][1,2,4]triazin-2-yl)amino)cyclohexan-1-ol], the EC50 turned out to be 7 nM. With `c1cn2cc(-c3ccn4nc(NCC5CC5)ncc34)cnc2n1` [Compound 229, N-(Cyclopropylmethyl)-5-(imidazo[1,2-a]pyrimidin-6-yl)pyrrolo[2,1-f] [1,2,4]triazin-2-amine], the EC50 came to 9 nM. Turning to `CC(C)Nc1ncc2c(-c3cnc4nccn4c3)ccn2n1` [Compound 214, 5-(Imidazo[1,2-a]pyrimidin-6-yl)-N-isopropylpyrrolo[2,1-f][1,2,4]triazin-2-amine], the EC50 was 33 nM. On to `Cc1nc2ccc(-c3ccn4nc(N[C@H]5CC[C@@](C)(O)CC5)ncc34)nc2n1CC(C)(C)C#N` [Compound 1869, 3-(5-(2-((cis-4-Hydroxy-4-methylcyclohexyl)amino)pyrrolo[2,1-f][1,2,4]triazin-5-yl)-2-methyl-3H-imidazo[4,5-b]pyridin-3-yl)-2,2-dimethylpropanenitrile], for which the concentration for a half-maximal effect (EC50) worked out at 16 nM. For the molecule `Cc1nc2ccc(-c3ccn4nc(NC5CCN(CCC(F)(F)F)CC5)ncc34)nc2n1CC(F)F` [Compound 1851], the EC50 amounted to 11 nM. The result for `Cc1nc2ccc(-c3ccn4nc(N[C@@H]5[C@@H]6COC[C@@H]65)ncc34)nc2n1CC(F)F` [Compound 1914, N-((lR,5S,6s)-3-Oxabicyclo[3.1.0]hexan-6-yl)-5-(3-(2,2-difluoroethyl)-2-methyl-3H-imidazo[4,5-b]pyridin-5-yl)pyrrolo[2,1-f][1,2,4]triazin-2-amine] reads 5 nM. The result for `Cc1nc2ccc(-c3ccn4nc(N[C@H]5CC[C@@H](CN6CCOCC6)CC5)ncc34)nc2n1CC(F)F` [Compound 1842, 5-(3-(2,2-difluoroethyl)-2-methyl-3H-imidazo[4,5-b]pyridin-5-yl)-N-(cis-4-(morpholinomethyl)cyclohexyl)pyrrolo[2,1-f][1,2,4]triazin-2-amine] reads 5 nM; that for `Cc1nc2ncc(-c3ccn4nc(NCC(C)(C)F)ncc34)cc2n1C1CC(F)(F)C1` [Compound 713, 5-(1-(3,3-Difluorocyclobutyl)-2-methyl-1H-imidazo[4,5-b]pyridin-6-yl)-N-(2-fluoro-2-methylpropyl)pyrrolo[2,1-f][1,2,4]triazin-2-amine], 11 nM.

As for `CCn1c(C)nc2ccc(-c3ccn4nc(NCC(C)(C)F)ncc34)nc21` [Compound 926, 5-(3-Ethyl-2-methyl-3H-imidazo[4,5-b]pyridin-5-yl)-N-(2-fluoro-2-methylpropyl)pyrrolo[2,1-f][1,2,4]triazin-2-amine], the 50% effective concentration (EC50) was determined as 27 nM. The result for `Cc1nc2ccc(-c3ccn4nc(N[C@@H]5COC[C@H]5O)ncc34)nc2n1CC(F)F` [Compound 1906, (3S,4R)-4-((5-(3-(2,2-Difluoroethyl)-2-methyl-3H-imidazo [4,5-b]pyridin-5-yl)pyrrolo[2,1-f][1,2,4]triazin-2-yl)amino)tetrahydrofuran-3-ol] reads 4 nM; that for `Cc1nc2ccc(-c3ccn4nc(N[C@H]5CC[C@H](C(=O)N(C)C)CC5)ncc34)nc2n1CC(F)F` [Compound 1895, trans-4-((5-(3-(2,2-Difluoroethyl)-2-methyl-3H-imidazo[4,5-b]pyridin-5-yl)pyrrolo[2,1-f] [1,2,4]triazin-2-yl)amino)-N,N-dimethylcyclohexane-1-carboxamide], 3 nM; that for `CC1(CNc2ncc3c(-c4ccc5nccn5c4)ccn3n2)CC1` [Compound 12, 5-(Imidazo[1,2-a]pyridin-6-yl)-N-((1-methylcyclopropyl)methyl)pyrrolo[2,1-f][1,2,4]triazin-2-amine], 45 nM.

Broadly, the EC50 is the concentration giving half of the maximal effect.
